{"source": "patent US11406678B2", "about": "“Simmondsin formulation” (priority 2016, dated 2022)", "origin": "cited, not measured here", "details": "rats, 25 mg or 50 mg simmondsin per kg body weight"}
{"smiles": "CO[C@H]1[C@@H](OC)C[C@@H](O[C@@H]2O[C@H](CO)[C@@H](O)[C@H](O)[C@H]2O)/C(=C\\C#N)[C@@H]1O", "note": "[simmondsin]", "values": [{"measurement": "weight loss", "value": "no effect on the weight loss"}]}
